# Test results reported in patent publication US20210290648A1, “Potentiation of B-Lactam Antibiotics and B-Lactam/B-Lactamase Inhibitor Combinations Against Multidrug and Extensively Drug-Resistant Pseudomonas Aeruginosa Using Non-Ribosomal Tobramycin-Cyclam Conjugates” (University of Manitoba, priority 2018, published 2021).
# How the values were obtained:
# [1] = tested on: PA 100036; experiment: Checkerboard combination study / MIC; type: cell-based, Pseudomonas aeruginosa
# [2] = tested on: PA 101885; experiment: Checkerboard combination study / MIC; type: cell-based, Pseudomonas aeruginosa
# [3] = tested on: PA 259; experiment: Checkerboard combination study / MIC; type: cell-based, Pseudomonas aeruginosa
# [4] = tested on: PA 260; experiment: Checkerboard combination study / MIC; type: cell-based, Pseudomonas aeruginosa
# [5] = tested on: PA 262; experiment: Checkerboard combination study / MIC; type: cell-based, Pseudomonas aeruginosa
# [6] = tested on: PA 264; experiment: Checkerboard combination study / MIC; type: cell-based, Pseudomonas aeruginosa
# [7] = tested on: PA 91433; experiment: Checkerboard combination study / MIC; type: cell-based, Pseudomonas aeruginosa; details: PA 91433
# [8] = tested on: PA 101243; experiment: Checkerboard combination study / MIC; type: cell-based, Pseudomonas aeruginosa; details: PA 101243
# [9] = tested on: PA 114228; experiment: Checkerboard combination study / MIC; type: cell-based, Pseudomonas aeruginosa
# [10] = tested on: MDR/XDR P. aeruginosa clinical isolates; experiment: MIC and checkerboard, panel of clinical isolates; type: cell-based, Pseudomonas aeruginosa; details: antibiotic + compound 2 (8.7 μM); resistant P. aeruginosa isolates
# [11] = tested on: Galleria mellonella larvae; experiment: Galleria mellonella tolerability study
# Protocol: In vitro and in vivo discordances have been observed in antimicrobial chemotherapy, thus, therapeutic efficacy may not necessarily be reliably extrapolated based on in vitro data alone. […] Colistin (100 mg/kg), an antibiotic well known for its toxicity towards eukaryotes, served as a positive control for this experiment while PBS served as negative control. […] Survivability was scored for a total of 4 days.
# In vivo larvae-infection model. In vivo synergistic effects were determined using Galleria mellonella infection model, as previously described (20). Briefly, worms were purchased from The Worm Lady® Live Feeder (ON, Canada), stored in their natural habitat at 16° C., and used within 10 days of delivery. The worms (average weight of 250 mg) were used for tolerability and efficacy studies. Tolerability study was performed by injecting 10 μL of antimicrobial agents only at concentrations equivalent to 100 mg/kg or 200 mg/kg. The worms (ten in each group) were incubated at 37° C. and monitored for 96 h. […] Overnight grown culture of respective MDR P. aeruginosa isolate was standardized to 0.5 McFarland standard and diluted in PBS to a final concentration of […]. 10 μL of this solution (5 CFU) was injected into each worm and incubated for 3 h at 37° C. […] Worms treated with 10 μL PBS or high concentrations of test antibiotics served as negative and positive control, respectively. The worms were incubated at 37° C. in Petri dishes lined with filter paper and scored for survivability every 6 h for up to 48 h. This experiment was repeated to give a total of thirty worms (n=30) in each case. Survival data curves were plotted using Kaplan-Meier survival analysis.
# [12] = MIC of antibiotic combined with compound 2
structure (smiles),measurement,setting,value
C[C@@H](O)[C@H]1C(=O)N2C(C(=O)O)=C(S[C@@H]3CN[C@H](C(=O)N(C)C)C3)[C@H](C)[C@H]12 [Meropenem],MICCombination (antibiotic),[1]; [12],2 µg/mL
same,FICI,[1]; antibiotic + compound 2,<0.51
same,MICAntibiotic,[1]; antibiotic alone,4 µg/mL
same,FICAntibiotic,[1]; with compound 2,0.500
same,MICCombination (antibiotic),[2]; [12],0.5 µg/mL
same,FICI,[2]; antibiotic + compound 2,<0.16
same,MICAntibiotic,[2]; antibiotic alone,4 µg/mL
same,FICAntibiotic,[2]; with compound 2,0.125
same,MICCombination (antibiotic),[3]; [12],256 µg/mL
same,FICI,[3]; antibiotic + compound 2,<0.31
same,MICAntibiotic,[3]; antibiotic alone,1024 µg/mL
same,FICAntibiotic,[3]; with compound 2,0.250
same,MICCombination (antibiotic),[4]; [12],1 µg/mL
same,FICI,[4]; antibiotic + compound 2,<0.16
same,MICAntibiotic,[4]; antibiotic alone,8 µg/mL
same,FICAntibiotic,[4]; with compound 2,0.125
same,MICCombination (antibiotic),[5]; [12],2 µg/mL
same,FICI,[5]; antibiotic + compound 2,<0.13
same,MICAntibiotic,[5]; antibiotic alone,32 µg/mL
same,FICAntibiotic,[5]; with compound 2,0.063
same,MICCombination (antibiotic),[6]; [12],2 µg/mL
same,FICI,[6]; antibiotic + compound 2,<0.05
same,MICAntibiotic,[6]; antibiotic alone,64 µg/mL
same,FICAntibiotic,[6]; with compound 2,0.0313
same,MICCombination (antibiotic),[7]; [12],0.25 µg/mL
same,FICI,[7]; antibiotic + compound 2,<0.03
same,MICAntibiotic,[7]; antibiotic alone,16 µg/mL
same,FICAntibiotic,[7]; with compound 2,0.016
same,MICCombination (antibiotic),[8]; [12],2 µg/mL
same,FICI,[8]; antibiotic + compound 2,<0.25
same,MICAntibiotic,[8]; antibiotic alone,8 µg/mL
same,FICAntibiotic,[8]; with compound 2,0.250
same,MICCombination (antibiotic),[9]; [12],2 µg/mL
same,FICI,[9]; antibiotic + compound 2,<0.28
same,MICAntibiotic,[9]; antibiotic alone,8 µg/mL
same,FICAntibiotic,[9]; with compound 2,0.250
same,resistant isolates reaching CLSI clinical breakpoint,[10],eight out of nine
same,survival of larvae,"[11]; 100 mg/kg and 200 mg/kg injected alone, after 48 h",100%
same,dose tolerated by larvae,"[11]; Galleria mellonella, in vivo, 96 h",up to 200 mg/kg
